Patent publication US20180185408A1, “ANTIFUNGAL NYLON-3 POLYMERS AND COMBINATION THERAPY USING THEM TO TREAT FUNGAL INFECTIONS” (priority 2016, published 2018)
Values after ≈ are worked out from the molar mass of the structure shown. Like-named read-outs stand apart in the source and are kept apart here. Marks after values point to notes of the source that are not given here.

Experiments:
[1] = system: RAW 264.7 macrophages; test: In vitro cytotoxicity (CytoTox-ONE, LDH release); settings: 12 hours
[2] = system: Candida albicans; test: Checkerboard microdilution synergy (FIC); assay type: cell-based; settings: for MIC: Candida albicans; for MIC Combined: FLC and MM:TM in combination
[3] = system: C. krusei; test: MIC100 against yeast (CLSI M27-A3); assay type: cell-based, Candida krusei
[4] = system: C. auris; test: MIC100 against yeast (CLSI M27-A3); assay type: cell-based, Candida auris; settings: Candidozyma auris
[5] = system: Saccharomyces cerevisiae; test: MIC100 against yeast (CLSI M27-A3); assay type: cell-based; settings: Saccharomyces cerevisiae W303
[6] = MM:TM (40:60) with Fluconazole, isolate K1 (Fluconazole Resistant), […]10^5 cells/mL, 30° C.

C[C@@H]1[C@H](O)[C@@H](C)/C=C/C=C/C=C/C=C/C=C/C=C/C=C/[C@H](O[C@@H]2O[C@H](C)[C@@H](O)[C@H](N)[C@@H]2O)C[C@@H]2O[C@](O)(C[C@@H](O)C[C@@H](O)[C@H](O)CC[C@@H](O)C[C@@H](O)CC(=O)O[C@H]1C)C[C@H](O)[C@H]2C(=O)O [AMB, amphotericin B]
cell death at the highest concentration tested [1]: less than 50%
concentration causing 10% cell death (IC10) [1]: 108 µM

OC(Cn1cncn1)(Cn1cncn1)c1ccc(F)cc1F [FLC, fluconazole]
MIC ([2]; 48 h, K1, FLC and MM:TM, single agent, […]10^5 cells/mL, 30°C, OD600 48 h, read-out: MIC Alone): > 164 µM
MIC ([2]; 48 h, K1, Fluconazole and MM:TM, […]10^5 cells/mL, 30°C, OD600 48 h, Avg., read-out: MIC alone): > 163 µM
MIC ([2]; 48 h, K1, Fluconazole and MM:TM, […]10^5 cells/mL, 30°C, OD600 48 h, trial 1, read-out: MIC alone): > 81.6 µM
MIC ([2]; 48 h, K1, Fluconazole and MM:TM, […]10^5 cells/mL, 30°C, OD600 48 h, trial 2, read-out: MIC alone): > 163 µM
MIC ([2]; 48 h, K1, Fluconazole and MM:TM, […]10^5 cells/mL, 30°C, OD600 48 h, trial 3, read-out: MIC alone): > 81.6 µM
MIC ([2]; 48 h, K1, fluconazole and MM:TM, […]10^5 cells/mL, 30°C, OD600 48 h, Avg., read-out: MIC alone): > 50 µg/mL
MIC ([2]; 48 h, K1, fluconazole and MM:TM, […]10^5 cells/mL, 30°C, OD600 48 h, trial 1, read-out: MIC alone): > 25 µg/mL
MIC ([2]; 48 h, K1, fluconazole and MM:TM, […]10^5 cells/mL, 30°C, OD600 48 h, trial 2, read-out: MIC alone): > 50 µg/mL
MIC ([2]; 48 h, K1, fluconazole and MM:TM, […]10^5 cells/mL, 30°C, OD600 48 h, trial 3, read-out: MIC alone): > 25 µg/mL
MIC [2, 6]: > 50 µg/mL
MIC ([2]; NM20 with Fluconazole, C. albicans K1, […] 10^5 cells/mL): > 25 µg/mL
MIC ([2]; SC5314, 48 h, SC5314, FLC and MM:TM, single agent, […]10^5 cells/mL, 30°C, OD600 48 h, read-out: MIC Alone): < 1 µM
MIC ([2]; SC5314, 48 h, SC5314, Fluconazole and MM:TM, […]10^5 cells/mL, 30°C, OD600 48 h, Avg., read-out: MIC alone): < 1 µM
MIC ([2]; SC5314, 48 h, SC5314, Fluconazole and MM:TM, […]10^5 cells/mL, 30°C, OD600 48 h, trial 1, read-out: MIC alone): < 0.7 µM
MIC ([2]; SC5314, 48 h, SC5314, Fluconazole and MM:TM, […]10^5 cells/mL, 30°C, OD600 48 h, trial 2, read-out: MIC alone): < 2.6 µM
MIC ([2]; SC5314, 48 h, SC5314, Fluconazole and MM:TM, […]10^5 cells/mL, 30°C, OD600 48 h, trial 3, read-out: MIC alone): < 1.3 µM
MIC ([2]; SC5314, 48 h, SC5314, fluconazole and MM:TM, […]10^5 cells/mL, 30°C, OD600 48 h, Avg., read-out: MIC alone): < 0.3 µg/mL
MIC ([2]; SC5314, 48 h, SC5314, fluconazole and MM:TM, […]10^5 cells/mL, 30°C, OD600 48 h, trial 1, read-out: MIC alone): < 0.2 µg/mL
MIC ([2]; SC5314, 48 h, SC5314, fluconazole and MM:TM, […]10^5 cells/mL, 30°C, OD600 48 h, trial 2, read-out: MIC alone): < 0.8 µg/mL
MIC ([2]; SC5314, 48 h, SC5314, fluconazole and MM:TM, […]10^5 cells/mL, 30°C, OD600 48 h, trial 3, read-out: MIC alone): < 0.4 µg/mL
MIC ([2]; SC5314, NM20 with Fluconazole, C. albicans SC5314, […] 10^5 cells/mL): > 25 µg/mL
MIC ([2]; SC5314, Table 43, MM:TM with Fluconazole, isolate SC5314, […] 10^5 cells/mL): < 0.3 µg/mL
MIC ([2]; Table 43, MM:TM with Fluconazole, isolate K1, […] 10^5 cells/mL): > 50 µg/mL
MIC Combined ([2]; K1, […]10^5 cells/mL, 30°C, OD600 48 h): <1.3^i μM
FIC ([2]; K1, Fluconazole and MM:TM, Avg., Table 13): 0.002
MIC combo ([2]; K1, Fluconazole and MM:TM, […]10^5 cells/mL, 30°C, OD600 48 h, Avg.): <1.3 µM
MIC combo ([2]; K1, Fluconazole and MM:TM, […]10^5 cells/mL, 30°C, OD600 48 h, trial 1): <1.3 µM
MIC combo ([2]; K1, Fluconazole and MM:TM, […]10^5 cells/mL, 30°C, OD600 48 h, trial 2): <2.6 µM
MIC combo ([2]; K1, Fluconazole and MM:TM, […]10^5 cells/mL, 30°C, OD600 48 h, trial 3): <1.3 µM
FIC ([2]; K1, Fluconazole and MM:TM, trial 1, Table 13): 0.004
FIC ([2]; K1, Fluconazole and MM:TM, trial 2, Table 13): 0.004
FIC ([2]; K1, Fluconazole and MM:TM, trial 3, Table 13): 0.004
FIC ([2]; K1, fluconazole and MM:TM, Avg.): 0.002
MIC combo ([2]; K1, fluconazole and MM:TM, […]10^5 cells/mL, 30°C, OD600 48 h, Avg.): <0.4 µg/mL
MIC combo ([2]; K1, fluconazole and MM:TM, […]10^5 cells/mL, 30°C, OD600 48 h, trial 1): <0.4 µg/mL
MIC combo ([2]; K1, fluconazole and MM:TM, […]10^5 cells/mL, 30°C, OD600 48 h, trial 2): <0.8 µg/mL
MIC combo ([2]; K1, fluconazole and MM:TM, […]10^5 cells/mL, 30°C, OD600 48 h, trial 3): <0.4 µg/mL
FIC ([2]; K1, fluconazole and MM:TM, trial 1): 0.004
FIC ([2]; K1, fluconazole and MM:TM, trial 2): 0.004
FIC ([2]; K1, fluconazole and MM:TM, trial 3): 0.004
improvement in antifungal activity (fluconazole MIC in combination with copolymer) ([2]; K1 strain): ≥ 100 fold
FICazole [2, 6]: 0.004
FICazole ([2]; MM:TM (40:60) with Fluconazole, isolate SC5314 (Senstive), […]10^5 cells/mL, 30° C.): 1
MIC Combined ([2]; SC5314, […]10^5 cells/mL, 30°C, OD600 48 h): <1.0 µM
FIC ([2]; SC5314, Fluconazole and MM:TM, Avg., Table 13): 1
MIC combo ([2]; SC5314, Fluconazole and MM:TM, […]10^5 cells/mL, 30°C, OD600 48 h, Avg.): <1.0 µM
MIC combo ([2]; SC5314, Fluconazole and MM:TM, […]10^5 cells/mL, 30°C, OD600 48 h, trial 1): <0.7 µM
MIC combo ([2]; SC5314, Fluconazole and MM:TM, […]10^5 cells/mL, 30°C, OD600 48 h, trial 2): <2.6 µM
MIC combo ([2]; SC5314, Fluconazole and MM:TM, […]10^5 cells/mL, 30°C, OD600 48 h, trial 3): <1.3 µM
FIC ([2]; SC5314, Fluconazole and MM:TM, trial 1, Table 13): 1
FIC ([2]; SC5314, Fluconazole and MM:TM, trial 2, Table 13): 1
FIC ([2]; SC5314, Fluconazole and MM:TM, trial 3, Table 13): 1
FIC ([2]; SC5314, fluconazole and MM:TM, Avg.): 1
MIC combo ([2]; SC5314, fluconazole and MM:TM, […]10^5 cells/mL, 30°C, OD600 48 h, Avg.): <0.3 µg/mL
MIC combo ([2]; SC5314, fluconazole and MM:TM, […]10^5 cells/mL, 30°C, OD600 48 h, trial 1): <0.2 µg/mL
MIC combo ([2]; SC5314, fluconazole and MM:TM, […]10^5 cells/mL, 30°C, OD600 48 h, trial 2): <0.8 µg/mL
MIC combo ([2]; SC5314, fluconazole and MM:TM, […]10^5 cells/mL, 30°C, OD600 48 h, trial 3): <0.4 µg/mL
FIC ([2]; SC5314, fluconazole and MM:TM, trial 1): 1
FIC ([2]; SC5314, fluconazole and MM:TM, trial 2): 1
FIC ([2]; SC5314, fluconazole and MM:TM, trial 3): 1
polymer efficacy against budding yeasts, 50% ([3]; C. krusei QC, CLSI QC isolate for susceptibility testing): 32
MIC50 ([3]; Pichia kudriavzevii, Candida krusei QC): 32 µg/mL (≈ 104 µM)
MIC50 ([4]; Candida auris B11220): 4 µg/mL (≈ 13.1 µM)
MIC50 ([4]; Candida auris C54039, Resistance AmB): 16 µg/mL (≈ 52.2 µM)
MIC50 [5]: < 1 µg/mL
